According to the CheMixHub drug solubility set:

Assay: xn = mol fraction of the nth substance listed, in the solute-free solvent

CCCSc1ccc2[nH]c(NC(=O)OC)nc2c1 + CCO + O
solubility (g/100 g solution)
Conditions	x2 = 0.0416	x2 = 0.0891	x2 = 0.1435	x2 = 0.2068	x2 = 0.2811	x2 = 0.3697	x2 = 0.4771	x2 = 0.61	x2 = 0.7787
288.95 K	0.00065	0.00225	0.0048	0.00531	0.0142	0.031	0.0476	0.0657	0.0669
293.15 K	0.00113	0.00279	0.0063	0.00878	0.0211	0.0396	0.0538	0.0706	0.0729
297.15 K	0.00141	0.0033	0.00736	0.0137	0.025	0.0476	0.0643	0.0856	0.0933
301.25 K	0.00181	0.00417	0.00932	0.0172	0.0324	0.0565	0.0753	0.0966	0.11
305.15 K	0.00257	0.00518	0.0114	0.0207	0.04	0.0682	0.0957	0.124	0.137
309.15 K	0.00328	0.00624	0.0127	0.025	0.048	0.0834	0.118	0.162	0.169
313.05 K	0.00395	0.00729	0.0156	0.0318	0.0594	0.104	0.149	0.204	0.208
317.25 K	0.00594	0.00852	0.0188	0.0386	0.0732	0.12	0.185	0.242	0.25

CCOc1ccccc1C(N)=O + CCO + CC#N
solubility (g/100 g solution)
Conditions	x2 = 0.1	x2 = 0.2	x2 = 0.3	x2 = 0.4	x2 = 0.5	x2 = 0.6	x2 = 0.7	x2 = 0.8	x2 = 0.9
293.15 K	3.67	4.64	5.5	6.13	6.78	6.6	6.09	5.58	4.95
298.15 K	4.87	5.98	7.15	7.99	8.56	8.45	7.95	7.21	6.29
303.15 K	6.28	7.75	8.84	9.86	10.4	10.1	9.58	8.65	7.54
308.15 K	8.19	9.9	11.3	12.4	13.1	13	12.2	11	9.7
313.15 K	10.5	12.4	14.4	15.7	16.2	16	15	13.7	11.8
318.15 K	13.3	15.6	17.7	19.2	19.9	19.5	18.3	16.5	14.7

Cc1c(Br)c(=O)n(C2CCCC2)c2nc(Cl)ncc12 + CC1=CC(=O)CC(C)(C)C1 + CC(C)O
solubility (g/100 g solution)
Conditions	278.15 K	283.15 K	288.15 K	293.15 K	298.15 K	303.15 K	308.15 K	313.15 K	318.15 K	323.15 K
x2 = 0.1	0.104	0.147	0.203	0.285	0.388	0.522	0.702	0.929	1.27	1.59
x2 = 0.2	0.167	0.234	0.327	0.45	0.61	0.819	1.09	1.43	1.87	2.42
x2 = 0.3	0.232	0.325	0.45	0.614	0.828	1.11	1.47	1.92	2.49	3.21
x2 = 0.4	0.288	0.401	0.554	0.752	1.02	1.35	1.79	2.33	3.02	3.87
x2 = 0.5	0.332	0.458	0.633	0.862	1.16	1.54	2.03	2.65	3.43	4.39
x2 = 0.6	0.364	0.506	0.697	0.947	1.27	1.69	2.23	2.9	3.75	4.8
x2 = 0.7	0.391	0.543	0.746	1.01	1.37	1.82	2.39	3.12	4.02	5.14
x2 = 0.8	0.416	0.579	0.796	1.08	1.45	1.93	2.54	3.32	4.28	5.48
x2 = 0.9	0.441	0.613	0.844	1.15	1.54	2.05	2.7	3.52	4.55	5.82

c1ccc(-c2ccc(C(c3ccccc3)n3ccnc3)cc2)cc1 (configuration not stated) + CC(O)CO + O
solubility (g/100 g solution)
Conditions	278.15 K	283.15 K	288.15 K	293.15 K	298.15 K	303.15 K	308.15 K	313.15 K	318.15 K
x2 = 0.02564	0.0702	0.0956	0.129	0.168	0.2	0.272	0.357	0.437	0.544
x2 = 0.0559	0.223	0.3	0.398	0.511	0.608	0.812	1.05	1.27	1.56
x2 = 0.09214	0.441	0.588	0.777	0.991	1.18	1.56	2	2.41	2.96
x2 = 0.1364	0.633	0.843	1.11	1.42	1.71	2.23	2.85	3.45	4.22
x2 = 0.1915	0.747	0.998	1.32	1.73	2.16	2.74	3.47	4.21	5.14
x2 = 0.2621	0.794	1.06	1.41	1.82	2.24	2.91	3.71	4.55	5.62
x2 = 0.3559	0.86	1.14	1.5	1.93	2.42	3.13	4	4.89	5.95
x2 = 0.4865	0.859	1.2	1.6	2.03	2.59	3.24	3.98	4.95	6.18
x2 = 0.6806	0.776	1.06	1.42	1.94	2.58	3.33	4.25	5.2	6.23

C#CC1(O)CCC2C3CCC4=CC(=O)CCC4C3C(=C)CC21CC (configuration not stated) + CO + O
solubility (g/100 g solution)
Conditions	x2 = 0.05881	x2 = 0.1233	x2 = 0.1942	x2 = 0.2727	x2 = 0.3599	x2 = 0.4576	x2 = 0.5675	x2 = 0.6923	x2 = 0.835
273.15 K	0.987	1.09	1.19	1.31	1.32	1.44	1.45	1.62	3.44
278.15 K	1.1	1.19	1.31	1.46	1.47	1.6	1.7	1.9	3.82
283.15 K	1.2	1.28	1.43	1.59	1.61	1.74	1.95	2.15	4.22
288.15 K	1.31	1.39	1.56	1.75	1.77	1.88	2.21	2.46	4.66
293.15 K	1.42	1.49	1.68	1.91	1.92	2.03	2.49	2.8	5.13
298.15 K	1.52	1.59	1.8	2.05	2.08	2.17	2.74	3.18	5.62
303.15 K	1.62	1.68	1.91	2.21	2.23	2.3	3.01	3.61	6.16
308.15 K	1.71	1.76	2.01	2.35	2.38	2.43	3.28	4.07	6.71
313.15 K	1.79	1.84	2.12	2.48	2.51	2.54	3.54	4.52	7.27
318.15 K	1.86	1.92	2.21	2.62	2.66	2.64	3.78	5.05	7.92
323.15 K	1.93	1.98	2.29	2.73	2.78	2.72	4	5.59	8.54

CC(S)C(=O)NCC(=O)O (configuration not stated) + CCCCO + Cc1ccccc1
solubility (g/100 g solution)
Conditions	273.15 K	278.15 K	283.15 K	288.15 K	293.15 K	298.15 K	303.15 K	308.15 K	313.15 K	318.15 K
x2 = 0.2371	0.947	1.12	1.28	1.47	1.67	1.87	2.08	2.33	2.6	2.92
x2 = 0.4531	2.23	2.53	2.88	3.29	3.76	4.25	4.73	5.25	5.84	6.48
x2 = 0.6509	2.84	3.41	4.01	4.7	5.45	6.25	7.12	7.99	8.88	10
x2 = 0.8325	3.57	4.44	5.37	6.33	7.31	8.43	9.63	11	12.3	13.9

Cl.NC(Cc1ccccc1)C(=O)OCc1ccccc1 (configuration not stated) + CO + CC(C)=O
solubility (g/100 g solution)
Conditions	x2 = 0.1	x2 = 0.2	x2 = 0.3	x2 = 0.4	x2 = 0.5	x2 = 0.6	x2 = 0.7	x2 = 0.8	x2 = 0.9
283.15 K	0.104	0.31	1.34	2.29	3.85	5.52	7.5	9.27	11.1
293.15 K	0.238	0.665	1.52	2.75	4.55	6.53	8.94	11	13.1
303.15 K	0.306	0.778	1.83	3.37	5.58	7.97	10.7	13.6	15.5
313.15 K	0.482	0.999	2.35	4.15	6.96	9.8	13.2	15.8	18.4
323.15 K	0.588	1.3	2.96	5.13	8.44	12.1	15.8	19.4	21.6

CCOC(=O)OC1=C(c2cc(C)ccc2C)C(=O)NC12CCC(OC)CC2 (configuration not stated) + CCO + O
solubility (g/100 g solution)
Conditions	278.15 K	283.15 K	288.15 K	293.15 K	298.15 K	303.15 K	308.15 K	313.15 K	318.15 K
x2 = 0.2	0.0705	0.151	0.226	0.365	0.51	0.748	1.02	1.33	1.82
x2 = 0.4	1.44	1.85	2.31	2.96	3.91	5.06	6.59	8.52	11.1
x2 = 0.6	2.83	3.59	4.57	5.78	7.18	9.11	11.5	14.3	17.8
x2 = 0.8	3.14	3.95	4.97	6.19	7.77	9.63	12	15	18.7
